Assay results reported in ChEMBL document CHEMBL3352641, “Discovery of pyrrolo[1,2-b]pyridazine-3-carboxamides as Janus kinase (JAK) inhibitors” (Bioorg Med Chem Lett, 2014).

What was measured:
[1] = target: T1, Tyrosine-protein kinase JAK3 (Homo sapiens, UniProt P52333); assay: Inhibition of JAK3 (unknown origin) by filter assay
T1 sequence (P52333 whole entry): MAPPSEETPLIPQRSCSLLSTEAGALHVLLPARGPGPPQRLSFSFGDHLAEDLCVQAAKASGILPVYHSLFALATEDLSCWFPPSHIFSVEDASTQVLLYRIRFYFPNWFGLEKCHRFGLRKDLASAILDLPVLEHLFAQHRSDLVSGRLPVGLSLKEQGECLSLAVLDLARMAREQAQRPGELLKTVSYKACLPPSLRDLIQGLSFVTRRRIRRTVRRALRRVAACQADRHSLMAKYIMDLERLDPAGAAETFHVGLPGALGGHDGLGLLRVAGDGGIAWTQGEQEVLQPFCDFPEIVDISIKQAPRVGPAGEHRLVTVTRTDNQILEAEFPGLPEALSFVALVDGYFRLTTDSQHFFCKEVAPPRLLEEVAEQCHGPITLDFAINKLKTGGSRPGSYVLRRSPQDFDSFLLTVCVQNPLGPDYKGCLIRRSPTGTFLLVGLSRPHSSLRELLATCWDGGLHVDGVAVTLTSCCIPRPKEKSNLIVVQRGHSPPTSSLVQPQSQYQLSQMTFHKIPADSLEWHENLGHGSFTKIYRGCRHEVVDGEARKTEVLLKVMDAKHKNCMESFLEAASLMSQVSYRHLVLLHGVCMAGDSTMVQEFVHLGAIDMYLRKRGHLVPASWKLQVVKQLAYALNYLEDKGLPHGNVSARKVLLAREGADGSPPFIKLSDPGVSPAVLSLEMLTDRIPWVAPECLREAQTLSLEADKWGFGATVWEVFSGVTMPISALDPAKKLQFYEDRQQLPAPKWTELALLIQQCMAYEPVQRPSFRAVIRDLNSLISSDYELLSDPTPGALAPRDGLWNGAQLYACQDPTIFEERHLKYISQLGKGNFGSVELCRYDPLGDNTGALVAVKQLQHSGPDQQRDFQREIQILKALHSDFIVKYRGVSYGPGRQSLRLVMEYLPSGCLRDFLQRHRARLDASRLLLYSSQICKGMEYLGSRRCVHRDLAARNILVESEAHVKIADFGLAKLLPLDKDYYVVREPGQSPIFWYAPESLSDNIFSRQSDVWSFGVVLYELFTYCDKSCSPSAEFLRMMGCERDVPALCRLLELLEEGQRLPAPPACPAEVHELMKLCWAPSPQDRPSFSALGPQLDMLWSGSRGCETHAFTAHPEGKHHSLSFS

[2] = target: Tyrosine-protein kinase JAK1 (Homo sapiens, UniProt P23458); assay: Inhibition of JAK1 (unknown origin) bycaliper assay
[3] = target: Non-receptor tyrosine-protein kinase TYK2 (Homo sapiens, UniProt P29597); assay: Inhibition of TYK2 (unknown origin) by caliper assay
[4] = target: Tyrosine-protein kinase JAK2 (Homo sapiens, UniProt O60674); assay: Inhibition of JAK2 (unknown origin) by caliper assay
Blood = assay: Inhibition of IL2-induced IFN-gamma production in human whole blood incubated for 18 hrs by ELISA method; type: functional, tissue-based
Serum = assay: (§1) Fraction unbound in human serum; type: ADME, cell-free
[5] = as §1; type: ADME, cell-free
[6] = Protein binding in human serum; type: ADME, cell-free; conditions: read-out: PB (converted)
[7] = Permeability by PAMPA method; type: ADME; conditions: read-out: permeability
[8] = Permeability in human Caco2 cells; type: ADME, cell-based; conditions: Caco-2, read-out: permeability
Cytochrome P450 1A2 = target: T2, Cytochrome P450 1A2 (Homo sapiens, UniProt P05177); assay: Inhibition of CYP1A2 (unknown origin); type: ADME
T2 sequence (P05177 whole entry): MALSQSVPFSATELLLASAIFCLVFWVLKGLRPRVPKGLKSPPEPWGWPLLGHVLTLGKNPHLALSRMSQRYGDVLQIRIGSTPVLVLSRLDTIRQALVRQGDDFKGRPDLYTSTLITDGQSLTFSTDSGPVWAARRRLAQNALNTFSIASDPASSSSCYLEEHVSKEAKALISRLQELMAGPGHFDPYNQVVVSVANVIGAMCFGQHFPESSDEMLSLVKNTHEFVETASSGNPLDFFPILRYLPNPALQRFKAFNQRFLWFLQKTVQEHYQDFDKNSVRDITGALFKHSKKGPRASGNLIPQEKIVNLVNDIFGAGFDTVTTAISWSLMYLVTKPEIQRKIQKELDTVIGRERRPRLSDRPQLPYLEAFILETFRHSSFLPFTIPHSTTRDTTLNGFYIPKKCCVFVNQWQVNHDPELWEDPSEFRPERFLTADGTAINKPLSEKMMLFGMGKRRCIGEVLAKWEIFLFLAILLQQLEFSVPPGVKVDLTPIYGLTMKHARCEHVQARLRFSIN

[9] = Inhibition of […] (unknown origin); type: ADME, Homo sapiens
Cytochrome P450 2C8 = target: T3, Cytochrome P450 2C8 (Homo sapiens, UniProt P10632); assay: Inhibition of CYP2C8 (unknown origin); type: ADME
T3 sequence (P10632 whole entry): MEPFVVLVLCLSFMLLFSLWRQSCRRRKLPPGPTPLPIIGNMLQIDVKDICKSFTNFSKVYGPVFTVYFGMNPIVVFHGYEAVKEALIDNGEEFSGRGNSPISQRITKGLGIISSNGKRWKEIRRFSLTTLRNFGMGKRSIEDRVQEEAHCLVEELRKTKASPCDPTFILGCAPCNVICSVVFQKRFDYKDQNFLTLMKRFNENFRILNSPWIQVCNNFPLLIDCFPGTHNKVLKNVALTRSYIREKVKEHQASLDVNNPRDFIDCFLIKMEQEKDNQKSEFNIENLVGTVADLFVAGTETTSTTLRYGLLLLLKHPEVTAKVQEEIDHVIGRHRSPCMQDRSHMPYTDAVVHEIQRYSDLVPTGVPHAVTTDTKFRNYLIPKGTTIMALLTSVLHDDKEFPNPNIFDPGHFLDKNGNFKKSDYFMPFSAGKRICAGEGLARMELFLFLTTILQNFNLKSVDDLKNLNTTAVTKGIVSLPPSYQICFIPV

Cytochrome P450 2C9 = Cytochrome P450 2C9 (Homo sapiens, UniProt P11712); assay: Inhibition of CYP2C9 (unknown origin); type: ADME
Cytochrome P450 2D6 = Cytochrome P450 2D6 (Homo sapiens, UniProt P10635); assay: Inhibition of CYP2D6 (unknown origin); type: ADME
Cytochrome P450 3A4 = Cytochrome P450 3A4 (Homo sapiens, UniProt P08684); assay: Inhibition of CYP3A4 (unknown origin); type: ADME
[10] = Half life mouse liver microsomes; type: ADME
[11] = Half life human liver microsomes; type: ADME
[12] = AUC in balb/c mouse at 2 mg/kg, iv; type: ADME, organism-based; parameters: dose 2 mg/kg, route intravenous; conditions: plasma
[13] = Half life in balb/c mouse at 2 mg/kg, iv; type: ADME, organism-based; parameters: dose 2 mg/kg, route intravenous; conditions: in vivo
[14] = Clearance in balb/c mouse at 2 mg/kg, iv; type: ADME, organism-based; parameters: dose 2 mg/kg, route intravenous; conditions: in vivo
[15] = Volume of distribution at steady state in balb/c mouse at 2 mg/kg, iv; type: ADME, organism-based; parameters: dose 2 mg/kg, route intravenous; conditions: in vivo, read-out: Vdss
[16] = Cmax in balb/c mouse at 2 mg/kg, po; type: ADME, organism-based; parameters: dose 2 mg/kg, route oral; conditions: in vivo
[17] = Tmax in balb/c mouse at 2 mg/kg, po; type: ADME, organism-based; parameters: dose 2 mg/kg, route oral; conditions: in vivo
[18] = AUC in balb/c mouse at 2 mg/kg, po; type: ADME, organism-based; parameters: dose 2 mg/kg, route oral; conditions: plasma
[19] = Half life in balb/c mouse at 2 mg/kg, po; type: ADME, organism-based; parameters: dose 2 mg/kg, route oral; conditions: in vivo
[20] = Oral bioavailability in balb/c mouse at 2 mg/kg; type: ADME, organism-based; conditions: in vivo
[21] = Cmax in balb/c mouse at 10 mg/kg, po; type: ADME, organism-based; parameters: dose 10 mg/kg, route oral; conditions: in vivo
[22] = Tmax in balb/c mouse at 10 mg/kg, po; type: ADME, organism-based; parameters: dose 10 mg/kg, route oral; conditions: in vivo
[23] = AUC in balb/c mouse at 10 mg/kg, po; type: ADME, organism-based; parameters: dose 10 mg/kg, route oral; conditions: plasma
[24] = Half life in balb/c mouse at 10 mg/kg, po; type: ADME, organism-based; parameters: dose 10 mg/kg, route oral; conditions: in vivo
[25] = Oral bioavailability in balb/c mouse at 10 mg/kg; type: ADME, organism-based; conditions: in vivo
[26] = Cmax in balb/c mouse at 50 mg/kg, po; type: ADME, organism-based; parameters: dose 50 mg/kg, route oral; conditions: in vivo
[27] = Tmax in balb/c mouse at 50 mg/kg, po; type: ADME, organism-based; parameters: dose 50 mg/kg, route oral; conditions: in vivo
[28] = AUC in balb/c mouse at 50 mg/kg, po; type: ADME, organism-based; parameters: dose 50 mg/kg, route oral; conditions: plasma
[29] = Half life in balb/c mouse at 50 mg/kg, po; type: ADME, organism-based; parameters: dose 50 mg/kg, route oral; conditions: in vivo
[30] = Oral bioavailability in balb/c mouse at 50 mg/kg; type: ADME, organism-based; conditions: in vivo

Tyrosine-protein kinase JAK2, sequence (O60674 whole entry): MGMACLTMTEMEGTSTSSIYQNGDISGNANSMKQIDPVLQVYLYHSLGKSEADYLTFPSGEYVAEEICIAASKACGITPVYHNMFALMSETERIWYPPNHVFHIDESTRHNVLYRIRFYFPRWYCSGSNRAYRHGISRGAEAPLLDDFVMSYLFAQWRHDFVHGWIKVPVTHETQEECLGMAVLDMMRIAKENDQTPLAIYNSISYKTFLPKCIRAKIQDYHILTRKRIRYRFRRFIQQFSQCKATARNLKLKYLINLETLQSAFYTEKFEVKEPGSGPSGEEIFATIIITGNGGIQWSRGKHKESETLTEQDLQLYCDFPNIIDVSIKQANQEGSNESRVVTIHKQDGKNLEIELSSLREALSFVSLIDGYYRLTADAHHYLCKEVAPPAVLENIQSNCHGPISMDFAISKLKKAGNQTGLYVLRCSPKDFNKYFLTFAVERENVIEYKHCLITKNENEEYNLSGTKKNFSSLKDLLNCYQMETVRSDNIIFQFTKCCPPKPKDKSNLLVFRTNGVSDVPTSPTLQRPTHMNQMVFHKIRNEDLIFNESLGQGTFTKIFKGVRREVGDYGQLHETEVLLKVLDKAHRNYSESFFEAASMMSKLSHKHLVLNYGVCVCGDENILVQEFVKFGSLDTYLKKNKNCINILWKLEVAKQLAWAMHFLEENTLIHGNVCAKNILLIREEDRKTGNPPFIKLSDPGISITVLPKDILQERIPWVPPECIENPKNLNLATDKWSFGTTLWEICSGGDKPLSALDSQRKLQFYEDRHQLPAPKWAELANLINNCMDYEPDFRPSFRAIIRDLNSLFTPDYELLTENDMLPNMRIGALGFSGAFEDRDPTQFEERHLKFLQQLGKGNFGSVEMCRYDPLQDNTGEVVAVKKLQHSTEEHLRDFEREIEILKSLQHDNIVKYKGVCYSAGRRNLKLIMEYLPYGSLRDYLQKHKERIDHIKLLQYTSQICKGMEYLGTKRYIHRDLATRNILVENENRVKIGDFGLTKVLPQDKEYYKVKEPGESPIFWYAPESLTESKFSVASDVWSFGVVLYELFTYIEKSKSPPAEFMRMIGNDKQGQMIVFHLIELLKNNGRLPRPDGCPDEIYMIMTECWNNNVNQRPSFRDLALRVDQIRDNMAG
Tyrosine-protein kinase JAK1, sequence (P23458 whole entry): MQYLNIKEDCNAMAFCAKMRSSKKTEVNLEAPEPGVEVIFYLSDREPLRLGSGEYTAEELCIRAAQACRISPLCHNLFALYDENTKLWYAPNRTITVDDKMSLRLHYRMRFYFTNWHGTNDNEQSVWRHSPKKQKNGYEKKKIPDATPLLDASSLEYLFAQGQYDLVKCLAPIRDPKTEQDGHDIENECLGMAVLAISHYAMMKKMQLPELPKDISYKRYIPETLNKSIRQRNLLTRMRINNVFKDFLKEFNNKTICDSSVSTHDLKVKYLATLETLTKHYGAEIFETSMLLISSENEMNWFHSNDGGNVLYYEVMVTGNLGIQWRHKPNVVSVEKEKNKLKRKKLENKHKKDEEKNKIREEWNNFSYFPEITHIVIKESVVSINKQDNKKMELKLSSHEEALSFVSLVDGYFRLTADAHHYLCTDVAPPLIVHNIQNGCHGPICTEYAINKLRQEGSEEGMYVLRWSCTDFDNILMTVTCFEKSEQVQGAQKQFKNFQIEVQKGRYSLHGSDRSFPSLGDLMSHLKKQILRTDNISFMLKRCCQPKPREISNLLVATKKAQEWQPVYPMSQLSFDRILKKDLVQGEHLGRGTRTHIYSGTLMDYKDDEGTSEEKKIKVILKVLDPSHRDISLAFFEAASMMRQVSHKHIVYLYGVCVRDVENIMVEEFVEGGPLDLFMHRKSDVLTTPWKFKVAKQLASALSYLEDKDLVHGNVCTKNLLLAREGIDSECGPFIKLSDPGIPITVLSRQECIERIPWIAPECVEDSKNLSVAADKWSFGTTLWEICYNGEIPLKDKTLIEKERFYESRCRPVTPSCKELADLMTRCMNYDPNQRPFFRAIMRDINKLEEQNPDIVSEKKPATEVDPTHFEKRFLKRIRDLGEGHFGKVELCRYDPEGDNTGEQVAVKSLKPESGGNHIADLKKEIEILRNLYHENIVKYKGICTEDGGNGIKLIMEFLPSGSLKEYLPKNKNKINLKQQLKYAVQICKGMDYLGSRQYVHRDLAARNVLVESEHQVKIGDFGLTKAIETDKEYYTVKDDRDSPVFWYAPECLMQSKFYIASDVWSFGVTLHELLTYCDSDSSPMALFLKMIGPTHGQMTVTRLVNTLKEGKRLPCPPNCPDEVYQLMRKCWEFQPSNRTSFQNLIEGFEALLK
Non-receptor tyrosine-protein kinase TYK2, sequence (P29597 whole entry): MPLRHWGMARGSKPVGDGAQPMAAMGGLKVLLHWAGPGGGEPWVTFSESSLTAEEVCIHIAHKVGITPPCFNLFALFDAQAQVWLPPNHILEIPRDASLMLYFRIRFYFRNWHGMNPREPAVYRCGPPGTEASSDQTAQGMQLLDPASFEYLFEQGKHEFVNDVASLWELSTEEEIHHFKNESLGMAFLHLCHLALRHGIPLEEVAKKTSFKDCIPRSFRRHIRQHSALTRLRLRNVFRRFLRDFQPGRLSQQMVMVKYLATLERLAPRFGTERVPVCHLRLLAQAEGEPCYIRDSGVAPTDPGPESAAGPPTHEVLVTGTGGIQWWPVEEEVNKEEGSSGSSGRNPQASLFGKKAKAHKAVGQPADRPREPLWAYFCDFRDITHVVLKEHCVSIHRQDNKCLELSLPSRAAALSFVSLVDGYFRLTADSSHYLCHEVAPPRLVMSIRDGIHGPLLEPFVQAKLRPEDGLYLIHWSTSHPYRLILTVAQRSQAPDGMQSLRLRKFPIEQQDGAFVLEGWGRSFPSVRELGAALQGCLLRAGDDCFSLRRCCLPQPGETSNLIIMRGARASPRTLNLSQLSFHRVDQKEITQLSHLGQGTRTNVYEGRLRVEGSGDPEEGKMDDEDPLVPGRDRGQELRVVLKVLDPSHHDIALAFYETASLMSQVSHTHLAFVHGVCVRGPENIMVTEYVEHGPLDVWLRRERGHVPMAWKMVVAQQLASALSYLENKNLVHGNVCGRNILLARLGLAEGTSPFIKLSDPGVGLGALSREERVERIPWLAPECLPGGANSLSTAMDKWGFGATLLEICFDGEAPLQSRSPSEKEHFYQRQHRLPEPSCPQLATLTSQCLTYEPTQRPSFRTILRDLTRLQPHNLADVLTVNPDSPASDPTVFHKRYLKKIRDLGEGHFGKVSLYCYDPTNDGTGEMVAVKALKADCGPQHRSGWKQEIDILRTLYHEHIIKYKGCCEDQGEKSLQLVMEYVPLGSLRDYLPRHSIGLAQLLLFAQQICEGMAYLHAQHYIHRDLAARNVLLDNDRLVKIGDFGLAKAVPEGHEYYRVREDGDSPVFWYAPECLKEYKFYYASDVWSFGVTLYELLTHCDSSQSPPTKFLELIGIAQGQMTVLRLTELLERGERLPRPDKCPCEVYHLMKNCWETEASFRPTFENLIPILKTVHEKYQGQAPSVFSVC
Cytochrome P450 2D6, sequence (P10635 whole entry): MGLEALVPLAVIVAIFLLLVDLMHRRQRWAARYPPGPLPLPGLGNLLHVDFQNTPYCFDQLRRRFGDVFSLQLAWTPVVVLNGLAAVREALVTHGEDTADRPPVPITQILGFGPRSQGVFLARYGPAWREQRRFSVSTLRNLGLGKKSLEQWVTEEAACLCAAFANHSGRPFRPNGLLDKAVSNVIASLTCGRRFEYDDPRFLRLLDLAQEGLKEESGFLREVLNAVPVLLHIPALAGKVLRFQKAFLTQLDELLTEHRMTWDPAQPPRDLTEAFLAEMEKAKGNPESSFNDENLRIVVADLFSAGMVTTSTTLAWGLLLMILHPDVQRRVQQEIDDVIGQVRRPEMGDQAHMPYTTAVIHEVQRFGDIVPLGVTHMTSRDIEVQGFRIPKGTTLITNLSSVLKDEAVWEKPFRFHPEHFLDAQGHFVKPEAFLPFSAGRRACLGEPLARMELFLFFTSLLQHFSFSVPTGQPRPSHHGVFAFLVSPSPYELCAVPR
Cytochrome P450 3A4, sequence (P08684 whole entry): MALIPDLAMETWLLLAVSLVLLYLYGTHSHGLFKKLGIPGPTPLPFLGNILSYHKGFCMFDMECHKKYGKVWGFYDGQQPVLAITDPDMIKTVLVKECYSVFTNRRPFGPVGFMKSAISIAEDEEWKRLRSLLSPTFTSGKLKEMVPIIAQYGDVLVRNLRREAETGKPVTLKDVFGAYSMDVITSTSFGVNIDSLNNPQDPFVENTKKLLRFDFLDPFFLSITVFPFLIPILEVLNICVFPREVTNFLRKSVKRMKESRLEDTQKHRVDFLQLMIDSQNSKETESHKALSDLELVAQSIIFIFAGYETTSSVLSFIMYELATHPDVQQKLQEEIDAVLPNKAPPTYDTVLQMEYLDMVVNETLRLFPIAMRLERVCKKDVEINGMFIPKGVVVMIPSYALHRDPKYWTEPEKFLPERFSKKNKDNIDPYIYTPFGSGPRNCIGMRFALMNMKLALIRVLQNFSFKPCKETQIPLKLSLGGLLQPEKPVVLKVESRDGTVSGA
Cytochrome P450 2C9, sequence (P11712 whole entry): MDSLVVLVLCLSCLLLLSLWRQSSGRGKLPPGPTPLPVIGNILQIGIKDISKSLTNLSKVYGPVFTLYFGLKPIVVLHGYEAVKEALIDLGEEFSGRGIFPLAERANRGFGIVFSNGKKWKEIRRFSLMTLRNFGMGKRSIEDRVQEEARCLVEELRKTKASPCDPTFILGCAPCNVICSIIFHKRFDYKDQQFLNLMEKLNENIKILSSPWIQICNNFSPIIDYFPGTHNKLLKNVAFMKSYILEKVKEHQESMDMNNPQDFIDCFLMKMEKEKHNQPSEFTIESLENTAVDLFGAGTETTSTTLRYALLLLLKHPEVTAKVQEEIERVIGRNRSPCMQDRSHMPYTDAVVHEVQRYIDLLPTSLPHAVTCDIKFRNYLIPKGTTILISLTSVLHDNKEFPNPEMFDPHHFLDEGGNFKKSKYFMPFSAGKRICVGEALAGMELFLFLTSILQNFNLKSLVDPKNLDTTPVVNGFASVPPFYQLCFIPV

CC1(C)[C@H](Nc2c(C(N)=O)cnn3cccc23)CC[C@]1(C)N
IC50 [1]: 5 nM
IC50 [2]: 19 nM
IC50 [3]: 97 nM
IC50 [4]: 62 nM
IC50 (Blood): 210 nM
Fu (Serum): 52%

CC1(C)[C@H](Nc2c(C(N)=O)cnn3cccc23)CC[C@@]1(C)O (racemic)
IC50 [1]: 3 nM
IC50 [2]: 26 nM
IC50 [3]: 7 nM
IC50 [4]: 31 nM
IC50 (Blood): 360 nM
fraction unbound [5]: 0.16

CC1(C)[C@H](Nc2c(C(N)=O)cnn3cccc23)CC[C@@]1(C)N
IC50 [1]: 32 nM
IC50 [2]: 71 nM
IC50 [3]: 52 nM
IC50 [4]: 280 nM
IC50 (Blood): 180 nM
fraction unbound [5]: 0.52

C[C@@H](Nc1c(C(N)=O)cnn2cccc12)C(C)(C)C
IC50 [1]: 8 nM
IC50 [2]: 48 nM
IC50 [3]: 16 nM
IC50 [4]: 30 nM
IC50 (Blood): 930 nM
fraction unbound [6]: 0.027
Papp [7]: 86.2 ×10⁻⁶ cm/s
Papp [8]: 19.2 ×10⁻⁶ cm/s

C[C@]1(F)CCC[C@H]1Nc1c(C(N)=O)cnn2cccc12
IC50 [1]: 1 nM
IC50 [2]: 9 nM
IC50 [3]: 2 nM
IC50 [4]: 18 nM
IC50 (Blood): 260 nM
fraction unbound [5]: 0.11
Papp [7]: 76.6 ×10⁻⁶ cm/s
Papp [8]: 25.6 ×10⁻⁶ cm/s
IC50 (Cytochrome P450 1A2): > 20000 nM
IC50 [9]: > 20000 nM
IC50 (Cytochrome P450 2C8): > 20000 nM
IC50 (Cytochrome P450 2C9): > 20000 nM
IC50 (Cytochrome P450 2D6): > 20000 nM
IC50 (Cytochrome P450 3A4): > 20000 nM
half-life [10]: 34 min
half-life [11]: 20 min
AUC [12]: 2 µM·h
half-life [13]: 72 min
clearance [14]: 60 mL/min/kg
Vd [15]: 4.8 L/kg
Cmax [16]: 480 nM
Tmax [17]: 30 min
AUC [18]: 0.87 µM·h
half-life [19]: 84 min
bioavailability [20]: 45%
Cmax [21]: 2600 nM
Tmax [22]: 30 min
AUC [23]: 5.7 µM·h
half-life [24]: 96 min
bioavailability [25]: 59%
Cmax [26]: 8200 nM
Tmax [27]: 30 min
AUC [28]: 21 µM·h
half-life [29]: 120 min
bioavailability [30]: 46%

CC1(C)[C@@H](N)CC[C@H]1Nc1c(C(N)=O)cnn2cccc12 (racemic)
IC50 [1]: 12 nM
IC50 [2]: 34 nM
IC50 [3]: 110 nM
IC50 [4]: 130 nM
IC50 (Blood): 260 nM
fraction unbound [5]: 0.44

CC1(C)CCC[C@H]1Nc1c(C(N)=O)cnn2cccc12
IC50 [1]: 5 nM
IC50 [2]: 24 nM
IC50 [3]: 8 nM
IC50 [4]: 16 nM
IC50 (Blood): 1200 nM
fraction unbound [5]: 0.019
fraction unbound [6]: 0.019
